Like-named read-outs stand apart in the source and are kept apart here. A value given as a limit tells only on which side of the number the result lay.

IC50 data for three molecules are collected here from US11952349B2, “Anti-cancer nuclear hormone receptor-targeting compounds” (Nuvation Bio Inc., priority 2019, dated 2024).

The test system of one assay is LNCap cells. The experiment in a line: Cell viability assay (CellTiterGlo, 6 days) LNCap. It counts as cell-based. To be noted: Homo sapiens, 144 h. As to the method:
(§1) Cell viability assay: LNCap, 22Rv1, and T47D cells were seeded at a density of 1500-2000 cells/well in 96 well plates, and a ‘T0’ (timepoint 0) was included along with the assay plate. The plates were then incubated at 37° C., 5% CO2 in a cell culture incubator overnight. On the next day, the ‘T0’ plate was assayed using CellTiterGlo (Promega, Inc) according to the manufacturer's instructions. The appropriate compounds were diluted in DMSO and added to the assay plate (final DMSO concentration of 0.2%) on the next day. The assay plates were incubated for 6 days at 37° C., 5% CO2. After the incubation period, the plates were assayed using CellTiterGlo (Promega, Inc) according to the manufacturer's instructions and luminescence was read on the EnVision plate reader. Inhibition the tested compounds was determined by the following formula: Inhibition rate (%)=(1−(RLU compound−RLU day0)/(RLU control−RLU day0))*100%. GraphPadPrism was used to analyze the data and determine absolute IC50 values.
A general note: Cellular ATP, detected with luciferase, serves as a proxy for viable cell number.

A further assay concerns 22Rv1 cells. In words: Cell viability assay (CellTiterGlo, 6 days) 22Rv1. It counts as cell-based. To be noted: Homo sapiens, 22Rv1, 144 h, read-out: 22RV1. The protocol:
as §1

The target in a further assay is Human recombinant PARP2 (Homo sapiens, UniProt Q9UGN5). In words: RBC HotSpot PARP2 assay (radioisotope-based filter binding). It counts as biochemical. The protocol:
(§2) The following methods are for evaluating the in vitro biology properties of the test articles. • a. RBC HotSpot Poly(ADP-ribose) Polymerases 1 (PARP1) and Poly(ADP-ribose) Polymerases 2 (PARP2) Assays: The assay was conducted at Reaction Biology Corporation (RBC; Malvern, PA). The assay principle is radioisotope-based filter binding assay where incorporation of radioisotope-labeled NAD^+ into the substrate captured on filter is detected after washout free NAD^+. Data were analyzed using Excel and GraphPad Prism software for IC50 curve fits. Each assay was conducted with PJ34 as a positive control. PARP1 assay: Human recombinant PARP1 at a final concentration of 2.5 nM was combined with histone H4 (20 μM) and test articles at various concentrations in reaction buffer (50 mM Tris-HCL, pH 8.0, 50 mM NaCl, 10 mM MgCl2, 1 mM DTT, 1% DMSO, and 20 μg/mL activated DNA). The solution was inoculated for 20 min at room temperature and the reaction initiated by adding [adenylate-^32P]-Nicotinamide Adenine Dinucleotide, ^32P-NAD^+ at a final concentration of 10 μM. After incubation for 2 hrs at room temperature, the reaction mixture was filtered and washed with 0.75% phosphoric acid for radioactivity detection. • ii. PARP2 assay: Human recombinant PARP2 at a final concentration of 2.5 nM was combined with histone H3 (20 μM) and test articles at various concentrations in reaction buffer (50 mM Tris-HCL, pH 8.0, 50 mM NaCl, 10 mM MgCl2, 1 mM DTT, 1% DMSO, and 20 μg/mL activated DNA). The solution was inoculated for 20 min at room temperature and the reaction was initiated by adding [adenylate-^32P]-Nicotinamide Adenine Dinucleotide, ^32P-NAD^+ at a final concentration of 10 μM. After incubation for 2 hrs at room temperature, the reaction mixture was filtered and washed with 0.75% phosphoric acid for radioactivity detection. • b. AR binding assay: AR in LNCaP cytosol was used for determining the binding affinity of test articles and the reference compound—progesterone (Sigma, Cat: E2785, St. Louis, MO). IC50 s were determined using 8 concentrations/compound. Cytosol is plated at 200 μg/well (100 μL) into a 96-well conical polypropylene plate (Agilent, Cat: 5042-1385, Santa Clara, CA) and mixed with 3 μL of test compound. After adding 100 μL of ^3H-methyltrienolone (PerkinElmer, Cat: NET590250UC, San Jose, CA), the plate was sealed and shaken at 300 rpm at 4° C. for 24 hours. Post incubation, 100 μL of radioligand adsorption buffer containing 10 mM Tris-HCl, pH 7.4; 1.5 mM EDTA; 1 mM DTT; 0.25% charcoal; 0.0025% dextran was added to individual wells. Plate was shaken for 15 min at 4° C. followed by centrifugation at 3000 rpm for 30 min at 4° C. 150 μL of supernatant is transferred into scint-tube (PerkinElmer, Cat: 6000192) and mixed with 2 mL of Ultima Gold Cocktail (PerkinElmer, Cat: 6013329). Radioactivity is counted using a TriCarb 2910 TR scintillation counter (PerkinElmer). Inhibition of the radioactivity by test articles was calculated using the equation below: % Inhibition=(1−(Assay well−Average_LC)/(Average_HC−Average_LC))×100%. • IC50 values (Table 6) were calculated and graphed using the model “log(inhibitor) vs. response—Variable slope” included in GraphPad Prism 5 (San Diego, CA). The Ki values were further calculated using the equation below where [L] is the radioligand concentration (1 nM) used in this study. Kd value was 0.332 nM. Ki=IC50/(1+[L]/Kd) • c. AR transactivation: Human AR cloned into a CMV vector backbone is used for the transactivation study. HEK-293 cells are plated at 80,000 cells per well of a 24 well plate in DME+5% csFBS. Twenty four hours later, the cells are transfected using Lipofectamine (Invitrogen, Carlsbad, CA) with 0.25 μg GRE-LUC, 0.01 μg CMV-LUC (renilla luciferase) and 25 ng of the AR in OPTIMEM medium. The cells are treated 24 hrs after transfection with various ligands (10^−12 to 10^−5 M final concentrations) and luciferase assay performed 48 hours after transfection. […]

The target in another assay is Human recombinant PARP1 (Homo sapiens, UniProt P09874). In words: RBC HotSpot PARP1 assay (radioisotope-based filter binding). It counts as biochemical. The protocol:
as §2

Chain of Human recombinant PARP1 (P09874 whole entry): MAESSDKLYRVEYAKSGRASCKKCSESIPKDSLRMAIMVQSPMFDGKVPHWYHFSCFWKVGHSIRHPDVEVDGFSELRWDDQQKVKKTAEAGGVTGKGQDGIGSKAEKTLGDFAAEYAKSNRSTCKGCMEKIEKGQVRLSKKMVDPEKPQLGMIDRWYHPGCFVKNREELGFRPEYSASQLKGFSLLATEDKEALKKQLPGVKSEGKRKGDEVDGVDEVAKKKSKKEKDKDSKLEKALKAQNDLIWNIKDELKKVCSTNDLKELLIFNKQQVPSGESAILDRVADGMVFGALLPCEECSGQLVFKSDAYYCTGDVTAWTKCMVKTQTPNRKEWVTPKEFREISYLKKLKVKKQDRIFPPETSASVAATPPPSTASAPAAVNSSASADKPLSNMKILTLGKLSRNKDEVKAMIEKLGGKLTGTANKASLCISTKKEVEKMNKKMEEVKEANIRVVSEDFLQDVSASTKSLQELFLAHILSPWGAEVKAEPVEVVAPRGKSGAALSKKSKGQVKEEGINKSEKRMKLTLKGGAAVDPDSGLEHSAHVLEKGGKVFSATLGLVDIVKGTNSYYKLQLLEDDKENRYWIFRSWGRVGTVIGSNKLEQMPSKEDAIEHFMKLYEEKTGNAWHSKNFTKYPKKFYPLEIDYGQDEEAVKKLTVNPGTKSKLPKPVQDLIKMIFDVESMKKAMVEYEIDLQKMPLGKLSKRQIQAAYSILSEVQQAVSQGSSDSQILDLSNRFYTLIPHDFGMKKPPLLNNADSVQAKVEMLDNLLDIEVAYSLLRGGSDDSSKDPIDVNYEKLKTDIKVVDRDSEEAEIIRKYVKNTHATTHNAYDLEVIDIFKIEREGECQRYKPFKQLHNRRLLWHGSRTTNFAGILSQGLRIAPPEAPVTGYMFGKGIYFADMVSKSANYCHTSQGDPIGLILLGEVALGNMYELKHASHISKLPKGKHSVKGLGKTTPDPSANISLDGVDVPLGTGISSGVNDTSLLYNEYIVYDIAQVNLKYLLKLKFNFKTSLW
Chain of Human recombinant PARP2 (Q9UGN5 whole entry): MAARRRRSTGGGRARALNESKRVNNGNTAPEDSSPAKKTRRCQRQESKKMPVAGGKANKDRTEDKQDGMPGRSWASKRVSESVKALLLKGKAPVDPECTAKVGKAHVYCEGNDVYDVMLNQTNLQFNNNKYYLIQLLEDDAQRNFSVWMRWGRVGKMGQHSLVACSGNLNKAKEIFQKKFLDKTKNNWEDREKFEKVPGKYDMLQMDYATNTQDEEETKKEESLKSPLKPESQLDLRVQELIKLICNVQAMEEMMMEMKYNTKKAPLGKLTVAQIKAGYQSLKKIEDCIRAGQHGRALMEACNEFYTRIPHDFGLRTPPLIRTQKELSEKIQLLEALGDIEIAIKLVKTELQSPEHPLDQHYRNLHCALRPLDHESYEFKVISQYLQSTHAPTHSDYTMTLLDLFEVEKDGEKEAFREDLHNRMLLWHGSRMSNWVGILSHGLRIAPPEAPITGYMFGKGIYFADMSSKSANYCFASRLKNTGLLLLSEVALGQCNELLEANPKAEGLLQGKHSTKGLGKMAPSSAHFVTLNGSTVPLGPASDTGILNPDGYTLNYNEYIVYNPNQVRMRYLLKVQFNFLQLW

On to `C[C@]12C[C@H](CCCCCC(=O)N3CCN(C(=O)c4cc(Cc5n[nH]c(=O)c6ccccc56)ccc4F)CC3)C3=C4CCC(=O)C=C4CC[C@H]3[C@@H]1CCC2=O` [Compound 1370, (8S,11S,13S,14S)-11-(6-(4-(2-fluoro-5-((4-oxo-3,4-dihydrophthalazin-1-yl)methyl)benzoyl)piperazin-1-yl)-6-oxohexyl)-13-methyl-7,8,11,12,13,14,15,16-octahydro-1H-cyclopenta[a]phenanthrene-3,17(2H,6H)-dione], for which the IC50 in the assay with LNCap cells (Table 7) is 100 to 1000 nM; in the assay on 22Rv1 cells, 100 to 1000 nM; at Human recombinant PARP2, below 1 nM; on Human recombinant PARP1, below 1 nM.

For `C[C@]12CC[C@H]3[C@@H](CCC4=CC(=O)CC[C@@]43C)[C@@H]1CC[C@@H]2C(=O)COCCCCCC(=O)NCCOCCOCC(=O)N1CCN(C(=O)c2cc(Cc3n[nH]c(=O)c4ccccc34)ccc2F)CC1` [Compound 1392], the IC50 is 1000 to 10000 nM with LNCap cells (Table 8); below 1 nM at Human recombinant PARP2 (Table 9, read-out: PARP2); 1 to 10 nM on Human recombinant PARP1 (Table 9, read-out: PARP1).

With `C[C@@H]1C[C@@]2(C)[C@@H](CC[C@@H]3[C@@H]2CC[C@]2(C)[C@@H](OCCCCCC(=O)N4CCN(C(=O)c5cc(Cc6n[nH]c(=O)c7ccccc67)ccc5F)CC4)CC[C@@H]32)CC1=O` [Compound 1402, 4-(4-fluoro-3-(4-(6-((2R,5S,8R,9S,10S,13S,14S,17S)-2,10,13-trimethyl-3-oxohexadecahydro-1H-cyclopenta[a]phenanthren-17-yloxy)hexanoyl)piperazine-1-carbonyl)benzyl)phthalazin-1(2H)-one], the IC50 is 1 to 10 nM at Human recombinant PARP2 (Table 9, read-out: PARP2) and 10 to 100 nM at Human recombinant PARP1 (Table 9, read-out: PARP1).
